Test results reported in patent publication US10017480B2, “Compounds having a selective PDE4D inhibiting activity” (UNIVERSITÂ DEGLI STUDI DI GENOVA, priority 2014, dated 2018).
Where “and” joins values, the source holds several entries; their conditions need not be identical. Identical values can stand only once. Counter-ions that a name gives are not always drawn. Like-named read-outs stand apart in the source and are kept apart here.

Columns and labels:
[1] = target: PDE4D3 (Homo sapiens, UniProt Q08499); test: PDE4D3 enzyme inhibition (IMAP); assay type: biochemical
Protocol: (§1) Compound's evaluation on PDE4D3, PDE4A4, PDE4B2 and PDE4C2 enzyme assays were performed by Scottish Biomedical (Glasgow, Scotland, UK) using recombinant human PDE enzymes expressed in a baculoviral system. The preliminary screening assays were performed by the IMAP technology (Molecular Devices), which is based on the high affinity binding of phosphate by immobilized metal coordination complexes on nanoparticles. The binding reagent complexes with phosphate groups on nucleotide monophosphate generated from cyclic nucleotides (cAMP) through phosphodiesterases. With fluorescence polarization detection, binding causes a change in the rate of the molecular motion of the phosphate bearing molecule and results in an increase in the fluorescence polarization value observed for the fluorescent label attached to the substrate. […] All compounds were solved in DMSO at 10^−2 M concentration and then diluted with water to the final suitable concentrations. All synthesized compounds were tested preliminary on PDE4D3 at 10^−5 M concentration, in duplicate. Results are expressed as a percent inhibition of control activity (see table 1).
IC50 values are reported at μM concentration in table 1. […] The results are reported (as percent of inhibition at 10 μM concentration) in Table 1.

[2] = target: T1, PDE4C2 (Homo sapiens, UniProt Q08493); test: PDE4C2 enzyme inhibition (IMAP); assay type: biochemical
T1 construct: purchased Scottish Biomedical (Glasgow, Scotland, UK); host or cells: baculoviral system
Protocol: as §1
The IC50 values obtained for the reference compounds are within accepted limits of historic averages obtained (0.5 log unit). IC50 values are reported at μM concentration in table 1. […] The results are reported (as percent of inhibition at 10 μM concentration) in Table 1.

Sequence of PDE4D3 (Q08499 1-673 isoform Q08499-2): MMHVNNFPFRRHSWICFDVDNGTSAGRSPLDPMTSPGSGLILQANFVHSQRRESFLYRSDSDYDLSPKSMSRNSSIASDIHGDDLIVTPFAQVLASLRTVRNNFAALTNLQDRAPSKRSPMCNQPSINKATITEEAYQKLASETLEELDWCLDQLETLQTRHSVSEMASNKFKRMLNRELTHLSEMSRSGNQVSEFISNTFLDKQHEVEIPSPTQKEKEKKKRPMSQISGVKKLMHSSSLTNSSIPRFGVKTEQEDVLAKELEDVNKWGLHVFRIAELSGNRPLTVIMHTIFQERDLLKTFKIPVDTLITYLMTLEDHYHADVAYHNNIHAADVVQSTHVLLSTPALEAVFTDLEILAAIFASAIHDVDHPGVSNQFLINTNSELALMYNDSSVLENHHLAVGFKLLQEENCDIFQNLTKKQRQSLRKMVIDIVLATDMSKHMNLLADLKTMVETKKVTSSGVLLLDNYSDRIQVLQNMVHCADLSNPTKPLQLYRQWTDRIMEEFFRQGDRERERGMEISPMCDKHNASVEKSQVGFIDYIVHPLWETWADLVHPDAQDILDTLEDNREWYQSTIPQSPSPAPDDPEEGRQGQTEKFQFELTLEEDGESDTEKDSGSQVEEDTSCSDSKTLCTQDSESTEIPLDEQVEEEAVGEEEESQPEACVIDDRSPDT
T1 sequence (Q08493 107-712): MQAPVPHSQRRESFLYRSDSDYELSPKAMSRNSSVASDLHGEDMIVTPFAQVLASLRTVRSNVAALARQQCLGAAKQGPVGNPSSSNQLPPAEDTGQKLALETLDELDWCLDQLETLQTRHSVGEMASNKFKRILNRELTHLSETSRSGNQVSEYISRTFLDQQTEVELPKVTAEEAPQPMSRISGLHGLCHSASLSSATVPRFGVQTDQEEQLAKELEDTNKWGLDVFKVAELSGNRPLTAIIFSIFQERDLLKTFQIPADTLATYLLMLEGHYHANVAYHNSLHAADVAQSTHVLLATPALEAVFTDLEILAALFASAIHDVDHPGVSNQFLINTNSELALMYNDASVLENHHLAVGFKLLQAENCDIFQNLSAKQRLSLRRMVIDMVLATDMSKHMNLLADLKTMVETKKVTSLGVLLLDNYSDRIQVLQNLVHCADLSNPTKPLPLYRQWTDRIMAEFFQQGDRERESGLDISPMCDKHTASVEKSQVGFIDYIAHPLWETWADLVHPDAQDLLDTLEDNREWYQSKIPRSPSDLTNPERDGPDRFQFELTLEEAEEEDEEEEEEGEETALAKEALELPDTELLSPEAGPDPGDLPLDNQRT

Structure (SMILES) | melting point | PDE4D3 % inib at 10 μM ([1]; 10 μM, in duplicate) | PDE4D3 % inib at 10 μM [1] | PDE4C2 % inib at 10 μM [2]
COc1ccc(-c2cc(C(=O)CN3CCOCC3)on2)cc1OC1CCCC1 (as salt: hydrochloride) [XVa, 1-{3-[3-(Cyclopentyloxy)-4-methoxyphenyl]isoxazol-5-yl}-2-morpholin-4-ylethanone hydrochloride] | 175 °C (dec.) | – | – | –
COc1ccc(-c2cc(C(=O)CN3CC(C)OC(C)C3)on2)cc1OC1CCCC1 (stereo not drawn) (as salt: hydrochloride) [XVb, 1-{3-[3-(Cyclopentyloxy)-4-methoxyphenyl]isoxazol-5-yl}-2-(2,6-dimethylmorpholin-4-yl)ethanone hydrochloride] | 200 °C (dec.) | – | – | –
COc1ccc(-c2ccn(CC(O)CN3CCOCC3)n2)cc1OC1CCCC1 (stereo not drawn) (as salt: salt) [XVIIIa, 1-{3-[3-(Cyclopentyloxy)-4-methoxyphenyl]-1H-pyrazol-1-yl}-3-morpholin-4-ylpropan-2-ol dihydrocloride] | 162 to 163 °C | – | – | –
COc1ccc(-c2ccn(CC(O)CN3CC(C)OC(C)C3)n2)cc1OC1CCCC1 (stereo not drawn) (as salt: salt) [XVIIIb, 1-{3-[3-(Cyclopentyloxy)-4-methoxyphenyl]-1H-pyrazol-1-yl}-3-(2,6-dimethylmorpholin-4-yl)propan-2-ol dihydrocloride] | 188 to 189 °C | – | – | –
COc1ccc(C2=NOC(C(=O)N3CCOCC3)C2)cc1OC1CCCC1 (stereo not drawn) [XIIIa, 4-({3-[3-(Cyclopentyloxy)-4-methoxyphenyl]-4,5-dihydroisoxazol-5-yl}carbonyl)morpholine] | 115 to 116 °C | 21% | – | –
COc1ccc(C2=NOC(C(=O)N3CC(C)OC(C)C3)C2)cc1OC1CCCC1 (stereo not drawn) [XIIIb, 4-({3-[3-(Cyclopentyloxy)-4-methoxyphenyl]-4,5-dihydroisoxazol-5-yl}carbonyl)-2,6-dimethylmorpholine] | 127 to 129 °C | 29% | – | –
COc1ccc(C2=NOC(C(=O)N3CCC(O)CC3)C2)cc1OC1CCCC1 (stereo not drawn) [XIIIc, 1-({3-[3-(Cyclopentyloxy)-4-methoxyphenyl]4,5-dihydroisoxazol-5-yl}carbonyl)piperidin-4-ol] | 134 °C | 26% | – | –
COc1ccc(C2=NOC(C(=O)N3CCCC3)C2)cc1OC1CCCC1 (stereo not drawn) [XIIId, 3-[3-(Cyclopentyloxy)-4-methoxyphenyl]-5-(pyrrolidin-1-ylcarbonyl)-4,5-dihydroisoxazole] | 126 to 127 °C | 15% | – | –
COc1ccc(C2=NOC(C(=O)N3CCCCC3)C2)cc1OC1CCCC1 (stereo not drawn) [XIIIe, 1-({3-[3-(Cyclopentyloxy)-4-methoxyphenyl]-4,5-dihydroisoxazol-5-yl}carbonyl)piperidine] | 130 °C | 8% | – | –
COc1ccc(C2=NOC(C(=O)N(CCO)CCO)C2)cc1OC1CCCC1 (stereo not drawn) [XIIIf, 3-[3-(Cyclopentyloxy)-4-methoxyphenyl]-N,N-bis(2-hydroxyethyl)-4,5-dihydroisoxazole-5-carboxamide] | – | 33% | – | –
COc1ccc(C2=NOC(CC(=O)N3CCOCC3)C2)cc1OC1CCCC1 (stereo not drawn) [XIVa, 4-({3-[3-(Cyclopentyloxy)-4-methoxyphenyl]-4,5-dihydroisoxazol-5-yl}acetyl)morpholine] | 144 °C and 144 to 145 °C | 29% | – | –
COc1ccc(C2=NOC(CC(=O)N3CCC(O)CC3)C2)cc1OC1CCCC1 (stereo not drawn) [XIVc, 1-({3-[3-(Cyclopentyloxy)-4-methoxyphenyl]-4,5-dihydroisoxazol-5-yl}acetyl)piperidin-4-ol] | 134 °C | 30% | – | –
COc1ccc(C2=NOC(CC(=O)N3CCCCC3)C2)cc1OC1CCCC1 (stereo not drawn) [XIVe, 1-({3-[3-(Cyclopentyloxy)-4-methoxyphenyl]-4,5-dihydroisoxazol-5-yl}acetyl)piperidine] | 104 to 106 °C | 40% | – | –
COc1ccc(C2=NOC(CC(=O)N3CCNCC3)C2)cc1OC1CCCC1 (stereo not drawn) [XIVf, 1-({3-[3-(Cyclopentyloxy)-4-methoxyphenyl]-4,5-dihydroisoxazol-5-yl}acetyl)piperazine] | 108 to 111 °C | 23% | – | –
COc1ccc(-c2ccn(CC(O)CN3CCC(O)CC3)n2)cc1OC1CCCC1 (stereo not drawn) [XVIIIc, 1-(3-{3-[3-(cyclopentyloxy)-4-methoxyphenyl]4H-pyrazol-1-yl}-2-hydroxypropyl)piperidin-4-ol] | – | 2% | – | –
COc1ccc(-c2cc(C(=O)N3CCOCC3)on2)cc1OC1CCCC1 [XVIIa, 4-({3-[3-(Cyclopentyloxy)-4-methoxyphenyl]isoxazol-5-yl}carbonyl)morpholine] | 100 to 101 °C | 41% | – | –
COc1ccc(-c2cc(C(=O)N3CC(C)OC(C)C3)on2)cc1OC1CCCC1 (stereo not drawn) [XVIIb, 4-({3-[3-(Cyclopentyloxy)-4-methoxyphenyl]isoxazol-5-yl}carbonyl)-2,6-dimethylmorpholine] | 152 to 153 °C | 35% | – | –

Structure (SMILES) | melting point | PDE4D3 % inib at 10 μM ([1]; 10 μM, in duplicate) | PDE4D3 % inib at 10 μM [1] | PDE4C2 % inib at 10 μM [2]
COc1ccc(-c2cc(C(O)CN3CCOCC3)on2)cc1OC1CCCC1 (stereo not drawn) [XVIa, 1-{3-[3-(Cyclopentyloxy)-4-methoxyphenyl]isoxazol-5-yl}-2-morpholin-4-ylethanol] | 136 to 137 °C | 38% | – | –
COc1ccc(-c2cc(C(=O)CN3CCOCC3)on2)cc1OC1CCCC1 [XVa, 1-{3-[3-(Cyclopentyloxy)-4-methoxyphenyl]isoxazol-5-yl}-2-morpholin-4-ylethanone hydrochloride] | – | 39% | – | –
COc1ccc(-c2cc(C(=O)CN3CC(C)OC(C)C3)on2)cc1OC1CCCC1 (stereo not drawn) [XVb, 1-{3-[3-(Cyclopentyloxy)-4-methoxyphenyl]isoxazol-5-yl}-2-(2,6-dimethylmorpholin-4-yl)ethanone hydrochloride] | – | 13% | – | –
COc1ccc(-c2ccn(CC(=O)N3CCOCC3)c2)cc1OC1CCCC1 [XXIIIa, 2-{3-[3-(cyclopentyloxy)-4-methoxy-phenyl]-pyrrol-1-yl}-1-morpholin-4-yl-ethanone] | 169 to 171 °C | 7% | – | –
COc1ccc(-c2ccn(CC(=O)N3CC(C)OC(C)C3)c2)cc1OC1CCCC1 (stereo not drawn) [XXIIIb, 2-{3-[3-(Cyclopentyloxy)-4-methoxy-phenyl]-pyrrol-1-yl}-1-(2,6-dimethyl-morpholin-4-yl)-ethanone] | 108 to 112 °C | 13% | – | –
COc1ccc(-c2ccn(CC(=O)N3CCC(O)CC3)c2)cc1OC1CCCC1 [XXIIIc, 2-{3-[3-(Cyclopentyloxy)-4-methoxy-phenyl]-pyrrol-1-yl}-1-(4-hydroxy-piperidin-1-yl)-ethanone] | 156 to 158 °C | 9% | – | –
OC1CCN(CC(O)Cn2ccc(-c3ccc(OC(F)F)c(OC4CCCC4)c3)n2)CC1 (stereo not drawn) [XXIIc, 1-(3-{3-[3-(cyclopentyloxy)-4-difluoromethoxy-phenyl]-pyrazol-1-yl}-2-hydroxy-propyl)-piperidin-4-ol] | – | – | 73% | –
COc1ccc(-c2ccn(CCC(=O)N3CCOCC3)c2)cc1OC1CCCC1 [XXIVa, 3-{3-[3-(cyclopentyloxy)-4-methoxy-phenyl]-pyrrol-1-yl}-1-morpholin-4-yl-propan-1-one] | 110 to 112 °C | 44% | – | –
COc1ccc(-c2ccn(CCC(=O)N3CCC(O)CC3)c2)cc1OC1CCCC1 [XXIVc] | 110 to 112 °C | 29% | – | –
COc1ccc(-c2ccn(CCC(=O)N3CCOCC3)n2)cc1OC1CCCC1 [XXIa, 4-(3-{3-[3-(cyclopentyloxy)-4-methoxyphenyl]-1H-pyrazol-1-yl}propanoyl)morpholine] | – | 42% | – | 10%
COc1ccc(-c2c[nH]cc2C(=O)N2CCOCC2)cc1OC1CCCC1 [XXVIa, {4-[3-(Cyclopentyloxy)-4-methoxy-phenyl]-1H-pyrrol-3-yl}-morpholin-4-yl-methanone] | – | 13% | – | –
COc1ccc(-c2c[nH]cc2C(=O)N2CC(C)OC(C)C2)cc1OC1CCCC1 (stereo not drawn) [XXVIb, {4-[3-(Cyclopentyloxy)-4-methoxy-phenyl]-1H-pyrrol-3-yl}-(2,6-dimethyl-morpholin-4-yl)-methanone] | – | 6% | – | –
COc1ccc(-c2c[nH]cc2C(=O)N2CCC(O)CC2)cc1OC1CCCC1 [XXVIc, {4-[3-(Cyclopentyloxy)-4-methoxy-phenyl]-1H-pyrrol-3-yl}-(4-hydroxy-piperidin-1-yl)-methanone] | – | 15% | – | –
COc1ccc(-c2ccn(CC(O)CN3CCOCC3)c2)cc1OC1CCCC1 (stereo not drawn) [XXVa, 1-{3-[3-(Cyclopentyloxy)-4-methoxy-phenyl]-pyrrol-1-yl}-3-morpholin-4-yl-propan-2-ol] | – | 21% | – | –
COc1ccc(-c2ccn(CC(O)CN3CC(C)OC(C)C3)c2)cc1OC1CCCC1 (stereo not drawn) [XXVb, 1-{3-[3-(Cyclopentyloxy)-4-methoxy-phenyl]-pyrrol-1-yl}-3-(2,6-dimethyl-morpholin-4-yl)-propan-2-ol] | – | 36% | – | –
COc1ccc(-c2ccn(CC(O)CN3CCC(O)CC3)c2)cc1OC1CCCC1 (stereo not drawn) [XXVc, 1-(3-{3-[3-(cyclopentyloxy)-4-methoxy-phenyl]-pyrrol-1-yl}-2-hydroxy-propyl)-piperidin-4-ol] | – | 5% | – | –
